Assay results as given in patent US9139589B2, “Heteroaryls and uses thereof” (Millennium Pharmaceuticals, Inc., priority 2009, dated 2015).

Molecular target: T1, PI3Kalpha (Homo sapiens, UniProt P42336)
T1 construct: His (N); host or cells: SF9 insect cells (baculovirus co-infection)
Assay: PI3K enzyme HTRF assay (PI3Kalpha)
Format: biochemical
From the text: Active phosphatidylinositol 3′ kinase (PI3K) enzyme is purified at Millennium Pharmaceuticals from SF9 insect cells (Invitrogen) co-infected with baculovirus containing amino-terminal His-tagged p110α and p85α expression constructs.
The PI3K enzyme HTRF® assay makes use of an energy transfer complex comprised of biotin-PI(3,4,5)P3, Europhium labeled anti-GST monoclonal antibody, a GST-tagged GRP1 pleckstrin homology (PH) domain, and Streptavidin-APC (allophycocyanin). Excitation of the Europium in the complex results in a stable time-resolved fluorescence resonance energy transfer (FRET) signal. Phosphatidylinositol 3,4,5 triphosphate (PI(3,4,5)P3, the product of PI3K, disrupts the energy transfer complex by competing with biotin-PI(3,4,5)P3 for binding to the GRP1 PH domain, resulting in a decreased fluorescent signal. Inhibitors of PI3K in the reaction prevent a decrease in the fluorescent signal.
PI3K enzyme (325 pM) is incubated with di-C8 PI(4,5)P2 substrate (3.5 μM, CellSignals, Inc.) in assay buffer (50 mM HEPES pH 7.0, 5 mM DTT, 150 mM NaCl, 10 mM β-glycerophosphate, 5 mM MgCl2, 0.25 mM sodium cholate, 0.001% CHAPS) containing 25 μM ATP and 0.5 μL of test compound (in 100% DMSO) at multiple concentrations in a final volume of 20.5 μL in 384 well plates for 30 min at 22-23° C. […] Fluorescent signal for each well is then measured on an LJL_Analyst (Molecular Devices). […]

T1 sequence (P42336 whole entry): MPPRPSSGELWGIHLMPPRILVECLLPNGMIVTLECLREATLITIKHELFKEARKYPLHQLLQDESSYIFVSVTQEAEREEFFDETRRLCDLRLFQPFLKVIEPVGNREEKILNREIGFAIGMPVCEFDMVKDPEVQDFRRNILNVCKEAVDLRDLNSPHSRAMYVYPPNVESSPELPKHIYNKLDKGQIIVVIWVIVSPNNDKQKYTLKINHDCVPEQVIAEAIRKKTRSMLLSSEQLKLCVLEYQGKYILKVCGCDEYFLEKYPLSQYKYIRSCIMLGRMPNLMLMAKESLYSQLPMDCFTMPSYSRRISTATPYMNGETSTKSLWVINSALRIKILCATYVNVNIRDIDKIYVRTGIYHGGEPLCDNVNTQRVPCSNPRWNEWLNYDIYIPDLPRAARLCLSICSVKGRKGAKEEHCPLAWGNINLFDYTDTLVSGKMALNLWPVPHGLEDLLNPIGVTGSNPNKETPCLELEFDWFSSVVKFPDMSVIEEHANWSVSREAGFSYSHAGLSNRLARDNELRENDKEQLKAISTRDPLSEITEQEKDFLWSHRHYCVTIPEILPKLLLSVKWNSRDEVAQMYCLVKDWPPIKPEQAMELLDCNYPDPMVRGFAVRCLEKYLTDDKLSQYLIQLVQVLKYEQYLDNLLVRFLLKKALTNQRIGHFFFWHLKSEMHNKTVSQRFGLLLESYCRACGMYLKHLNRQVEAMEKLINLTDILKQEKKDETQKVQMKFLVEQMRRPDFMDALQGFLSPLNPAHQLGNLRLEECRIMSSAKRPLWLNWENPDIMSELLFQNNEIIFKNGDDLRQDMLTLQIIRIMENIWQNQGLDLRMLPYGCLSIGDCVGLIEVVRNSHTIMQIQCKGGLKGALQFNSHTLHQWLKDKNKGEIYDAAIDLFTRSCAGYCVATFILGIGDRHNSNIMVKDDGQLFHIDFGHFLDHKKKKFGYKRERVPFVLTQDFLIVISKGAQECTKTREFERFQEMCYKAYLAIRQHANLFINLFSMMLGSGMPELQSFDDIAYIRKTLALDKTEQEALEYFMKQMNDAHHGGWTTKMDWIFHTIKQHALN
T1 sequence (P27986 whole entry partner): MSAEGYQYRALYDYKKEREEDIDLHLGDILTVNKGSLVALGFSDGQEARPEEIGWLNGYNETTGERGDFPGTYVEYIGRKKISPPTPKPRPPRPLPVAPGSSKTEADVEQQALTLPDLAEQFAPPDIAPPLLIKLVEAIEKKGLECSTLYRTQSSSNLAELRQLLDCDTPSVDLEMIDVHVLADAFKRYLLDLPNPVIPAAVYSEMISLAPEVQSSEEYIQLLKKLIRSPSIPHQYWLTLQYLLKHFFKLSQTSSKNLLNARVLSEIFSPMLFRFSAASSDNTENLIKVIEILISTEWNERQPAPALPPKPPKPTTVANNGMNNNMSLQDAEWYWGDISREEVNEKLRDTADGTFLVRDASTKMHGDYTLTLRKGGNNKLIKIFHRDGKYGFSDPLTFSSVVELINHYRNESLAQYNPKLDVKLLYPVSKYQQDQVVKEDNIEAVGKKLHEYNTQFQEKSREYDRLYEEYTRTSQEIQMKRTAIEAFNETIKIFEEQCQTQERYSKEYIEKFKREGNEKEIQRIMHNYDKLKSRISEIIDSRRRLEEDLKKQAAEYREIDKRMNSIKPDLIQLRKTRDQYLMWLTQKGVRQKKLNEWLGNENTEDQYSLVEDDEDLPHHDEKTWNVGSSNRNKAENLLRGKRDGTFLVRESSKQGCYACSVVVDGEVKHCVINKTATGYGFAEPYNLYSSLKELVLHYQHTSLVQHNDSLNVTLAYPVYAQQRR

- IC50: > 1000 nM
SMILES: CC(=O)Nc1cc(-c2nc(-c3ccccc3Cl)c(NC(C)=O)s2)ccn1 [Example C-1, N-{4-[5-(acetylamino)-4-(2-chlorophenyl)-1,3-thiazol-2-yl]pyridin-2-yl}acetamide]
